Results: patent US10464906B2, “Crystalline forms of a histone deacetylase inhibitor” (Acetylon Pharmaceuticals, Inc., priority 2015, dated 2019)

Tests used:
Format in all cases: physicochemical
[1] = Stability of crystalline forms under dry (vacuum, 45° C.) and humid (RH >95%) conditions, XRPD; conditions: for XRPD pattern after drying at 45° C. (under vacuum): dried under vacuum at 45° C.; for Form change after exposing the dried sample to high humidity conditions (XRPD): after drying at 45° C. under vacuum, then high humidity (RH >95%)
Protocol: For dry conditions, the sample was dried under vacuum at 45° C. followed by XRPD analysis. Later the sample was subjected to high humidity conditions (RH >95%) followed by XRPD analysis.
The MeOH and DCM solvates of Compound (I) were dried on XRPD plates under vacuum at 45° C. and were analyzed by XRPD the following day.
Pattern E was dried at 45° C. under vacuum overnight and analyzed by XRPD. The following day, it was subjected to high humidity conditions (>95%) and later analyzed by XRPD the next day. […] FIG. 26 illustrates the XRPD comparison of dried and humid samples with Compound (I), Form I, Pattern A.

[2] = Dynamic vapor sorption (DVS) with post-DVS XRPD; conditions: for Post DVS XRPD (crystalline form after DVS): XRPD of the post-DVS sample
Protocol: Samples were analyzed using an Aquadyne DVS-2 gravimetric water sorption analyzer. The relative humidity was adjusted between 2-95% and the weight of the sample was continuously monitored and recorded with respect to the relative humidity and time.
The material was subjected under Dynamic Vapor Sorption (DVS, FIG. 6).

[3] = Form change on heating or on storage at room temperature, XRPD
[4] = exposed to high humidity conditions

O=C(CCCCCCNC(=O)c1cnc(N(c2ccccc2)c2ccccc2Cl)nc1)NO [Form IX, 2-((2-chlorophenyl)(phenyl)amino)-N-(7-(hydroxyamino)-7-oxoheptyl)pyrimidine-5-carboxamide]
XRPD pattern after drying at 45° C. (under vacuum) [1]: Pattern D (Form IV) | XRPD pattern after drying at 45° C. (under vacuum) ([1]; listed as Pattern I): Pattern D | Post DVS XRPD (crystalline form after DVS) [2]: Pattern D, | Post DVS XRPD (crystalline form after DVS) ([2]; listed as Pattern I): Pattern D

O=C(CCCCCCNC(=O)c1cnc(N(c2ccccc2)c2ccccc2Cl)nc1)NO [Form II, 2-((2-chlorophenyl)(phenyl)amino)-N-(7-(hydroxyamino)-7-oxoheptyl)pyrimidine-5-carboxamide]
XRPD pattern after drying at 45° C. (under vacuum) [1]: Pattern D, | XRPD pattern after drying at 45° C. (under vacuum) ([1]; listed as Pattern B): Pattern D | Post DVS XRPD (crystalline form after DVS) [2]: Pattern D, | Post DVS XRPD (crystalline form after DVS) ([2]; listed as Pattern B): Pattern D | Weight change (DVS) [2, 4]: < 1% | XRPD pattern after heating ([3]; 130° C. for 30 minutes): Pattern A

O=C(CCCCCCNC(=O)c1cnc(N(c2ccccc2)c2ccccc2Cl)nc1)NO [Form V, 2-((2-chlorophenyl)(phenyl)amino)-N-(7-(hydroxyamino)-7-oxoheptyl)pyrimidine-5-carboxamide]
Form change after exposing the dried sample to high humidity conditions (XRPD) [1]: no further form change | XRPD pattern after drying at 45° C. (under vacuum) [1]: Form VI, Pattern F | XRPD pattern after drying at 45° C. (under vacuum) ([1]; listed as Pattern E): Pattern F (Form VI) | Post DVS XRPD (crystalline form after DVS) [2]: Pattern F, Form VI | Post DVS XRPD (crystalline form after DVS) ([2]; listed as Pattern E): Pattern F | Moisture uptake (DVS) [2, 4]: < 0.15%

O=C(CCCCCCNC(=O)c1cnc(N(c2ccccc2)c2ccccc2Cl)nc1)NO [Form III, 2-((2-chlorophenyl)(phenyl)amino)-N-(7-(hydroxyamino)-7-oxoheptyl)pyrimidine-5-carboxamide]
XRPD pattern after drying at 45° C. (under vacuum) [1]: Pattern D, | XRPD pattern after drying at 45° C. (under vacuum) ([1]; listed as Pattern C): Pattern D | Post DVS XRPD (crystalline form after DVS) [2]: Pattern D, | Post DVS XRPD (crystalline form after DVS) ([2]; listed as Pattern C): Pattern D | Weight change (DVS) [2, 4]: around 1.5%

O=C(CCCCCCNC(=O)c1cnc(N(c2ccccc2)c2ccccc2Cl)nc1)NO [Form VII, 2-((2-chlorophenyl)(phenyl)amino)-N-(7-(hydroxyamino)-7-oxoheptyl)pyrimidine-5-carboxamide]
Form change after exposing the dried sample to high humidity conditions (XRPD) [1]: no further form change | XRPD pattern after drying at 45° C. (under vacuum) [1]: Form VIII (Pattern H) | XRPD pattern after drying at 45° C. (under vacuum) ([1]; listed as Pattern G): Pattern H | Post DVS XRPD (crystalline form after DVS) [2]: Pattern H, | Post DVS XRPD (crystalline form after DVS) ([2]; listed as Pattern G): Pattern H

O=C(CCCCCCNC(=O)c1cnc(N(c2ccccc2)c2ccccc2Cl)nc1)NO [Pattern J]
XRPD pattern after drying at 45° C. (under vacuum) [1]: Pattern A | XRPD pattern after storage ([3]; room temperature, reanalyzed after three days): Pattern A
